Measured values published in article PMC11578313, “Miniaturized Modular Click Chemistry‐enabled Rapid Discovery of Unique SARS‐CoV‐2 M^pro Inhibitors With Robust Potency and Drug‐like Profile” (Advanced Science, 2024).
Where two headings read alike, the source gives them in different places.

Test: In vivo pharmacokinetic study in male ICR mice (compound alone)
Details: male, ICR, mouse, plasma
Method: The pharmacokinetics profile of the newly developed antiviral compound C5N17B was subsequently evaluated in male ICR mice that were free from specific pathogens, aiming to assess its potential for therapeutic application in vivo.
A total of six male ICR mice were randomly assigned to two groups. One group received the test drug intravenously at a dosage of 2 mg kg^−1, while the other group received oral administration at a dosage of 10 mg kg^−1. To prepare solutions of C5N17B, 2.39 mg compound was dissolved in a mixture of 0.119 mL DMSO, 0.238 mL polyoxyl 15 hydroxystearate (Solutol), and 2.027 mL normal saline. For the intravenous group, blood samples were collected from the sinus jugular into heparinized centrifugation tubes at various time points after dosing: 5, 15, 30 min, 1, 2, 4, 6, 8, and 24 h. As for the oral administration group, blood samples were collected at similar time points (0.05 mL of blood each time). The collected blood samples were then centrifuged at a speed of 4000 rpm for 10 min to separate plasma, which was subsequently stored at −20 °C until further LC‐MS analysis to determine the concentration of C5N17B. Briefly, the analysis involved adding 20 µL of plasma, sample calibration standard, quality control, and dilution quality control, and blank samples into respective wells on a 96‐well plate. Then each sample was quenched with 200 µL of internal standard (the blank sample was quenched with 200 µL of ACN: MeOH = 1:1), followed by vortex‐mixed for 5 min, and centrifuged for 0.5 min at 4000 rpm, 4 °C. Next, a 100 µL portion of supernatant was transferred to another clean 96‐well plate and diluted with 100 µL of water, vortex‐mixed for 5 min and centrifuged for 10 min at 4000 rpm, 4 °C, then the sample was injected for LC‐MS/MS analysis. All samples were quantified using an LC‐MS/MS‐AR Triple Quad 5500+ (SCIEX, USA) and the ExionLC liquid phase system. The mobile phase was 0.1% formic acid‐water/ACN with gradient elute at a flow rate of 0.8 mL mi^−1n (total time 2.20 min), and the detection wavelength was 225 nm. All blood samples were centrifuged using an Eppendorf 5424R centrifuge and quantified using an LC‐MS/MS‐AR Triple Quad 5500+ (SCIEX, USA). The pharmacokinetic parameters were calculated by WinNolin 8.2 software.

Cc1cncc(C(=O)N2C[C@H]3CC[C@@H](C2)N3[C@H](c2cccc(F)c2)c2cn(CCc3ccsc3)nn2)c1 [Compound C5N17B]
AUC (iv, 2 mg/kg, i.v. 2 mg kg^−1, male ICR mice, n = 3, read-out: AUC0‐∞, i.v.): 65.9 ± 14.9 ng·h/mL | clearance (iv, 2 mg/kg, i.v. 2 mg kg^−1, male ICR mice, n = 3, read-out: CL, i.v. (converted)): 524 mL/min/kg | Cmax (iv, 2 mg/kg, i.v. 2 mg kg^−1, male ICR mice, n = 3, read-out: Cmax, i.v.): 237 ± 53.6 ng/mL | MRT (iv, 2 mg/kg, i.v. 2 mg kg^−1, male ICR mice, n = 3, read-out: MRT0‐t, i.v.): 5.81 ± 894 min | MRT (iv, 2 mg/kg, i.v. 2 mg kg^−1, male ICR mice, n = 3, read-out: MRT0‐∞, i.v.): 6.96 ± 0.391 min | Tmax (iv, 2 mg/kg, i.v. 2 mg kg^−1, male ICR mice, n = 3, read-out: Tmax, i.v.): 4.98 min | half-life (iv, 2 mg/kg, i.v. 2 mg kg^−1, male ICR mice, n = 3, read-out: t1/2, i.v. (converted)): 6.6 min | bioavailability (oral, 10 mg kg^−1, p.o. 10 mg kg^−1 vs i.v. 2 mg kg^−1, male ICR mice, read-out: F (oral bioavailability)): 13% | concentration at 5 min (oral, 10 mg/kg, PO 10 mg/kg (10MPK), 5 min, mean of mice 4#-6#, read-out: Plasma concentration, Mean): 40.6 ng/mL | concentration at 15 min (oral, 10 mg/kg, PO 10 mg/kg (10MPK), 15 min, mouse plasma, individual mice 4-6, read-out: Plasma concentration (Calculated Concentration)): 18 ng/mL | concentration at 30 min (oral, 10 mg/kg, PO 10 mg/kg (10MPK), 30 min, sample marked "re", individual mouse, read-out: Plasma concentration (Calculated Concentration), re-analysis): 4.52 ng/mL | concentration at 1 hr (oral, 10 mg/kg, PO 10 mg/kg (10MPK), 1 hr, samples marked "re", individual mice, read-out: Plasma concentration (Calculated Concentration), re-analysis): 7.4 ng/mL | concentration at 2 hr (oral, 10 mg/kg, PO 10 mg/kg (10MPK), 2 hr, sample marked "re", individual mouse, read-out: Plasma concentration (Calculated Concentration), re-analysis): 15.7 ng/mL | concentration at 4 h (oral, 10 mg/kg, PO 10 mg/kg (10MPK), 4 hr, mouse plasma, individual mice 4-6, read-out: Plasma concentration (Calculated Concentration)): 5.85 ng/mL | concentration at 6 h (oral, 10 mg/kg, PO 10 mg/kg (10MPK), 6 hr, mouse plasma, individual mice 4-6, read-out: Plasma concentration (Calculated Concentration)): 2.52 ng/mL | Tmax (po, 10 mg/kg, PO 10 mg/kg (10MPK), individual mice 4#-6#, read-out: Tmax): 5 min | half-life (po, 10 mg/kg, PO 10 mg/kg (10MPK), mean of mice 4#-6#, read-out: T1/2, Mean (converted)): 213 min | Tmax (po, 10 mg/kg, PO 10 mg/kg (10MPK), mean of mice 4#-6#, read-out: Tmax, Mean): 5 min | concentration at 0.5 h (po, 10 mg/kg, PO 10 mg/kg, 0.50 h, mean of mice 4#-6#, read-out: plasma concentration, Mean): 8.28 ng/mL | concentration at 1 h (po, 10 mg/kg, PO 10 mg/kg, 1 h, mean of mice 4#-6#): 7.2 ng/mL | concentration at 2 h (po, 10 mg/kg, PO 10 mg/kg, 2 h, mean of mice 4#-6#): 10.5 ng/mL | concentration at 4 h (po, 10 mg/kg, PO 10 mg/kg, 4 h, individual mice 4#-6#, read-out: plasma concentration): 5.85 ng/mL | concentration at 4 h (po, 10 mg/kg, PO 10 mg/kg, 4 h, mean of mice 4#-6#, read-out: plasma concentration, Mean): 5.98 ng/mL | concentration at 6 h (po, 10 mg/kg, PO 10 mg/kg, 6 h, individual mice 4#-6#, read-out: plasma concentration): 2.52 ng/mL | concentration at 6 h (po, 10 mg/kg, PO 10 mg/kg, 6 h, mean (only 5# quantifiable), read-out: plasma concentration, Mean): 2.52 ng/mL | AUC(0-t) (po, 10 mg/kg, PO 10 mg/kg, individual mice 4#-6#, read-out: AUC0-t): 30.4 ng·h/mL | AUC(0-inf) (po, 10 mg/kg, PO 10 mg/kg, individual mice 4#-6#, read-out: AUC0-∞): 59.6 ng·h/mL | bioavailability (po, 10 mg/kg, PO 10 mg/kg, individual mice 4#-6#, read-out: F): 9.56% | MRT last (po, 10 mg/kg, PO 10 mg/kg, individual mice 4#-6#, read-out: MRT0-t): 97.2 min | AUC(0-inf) (po, 10 mg/kg, PO 10 mg/kg, individual mice 4-6, read-out: AUCINF_obs): 59.6 ng·h/mL | AUC(0-inf) (po, 10 mg/kg, PO 10 mg/kg, individual mice 4-6, read-out: AUCINF_pred): 55 ng·h/mL | AUC (po, 10 mg/kg, PO 10 mg/kg, individual mice 4-6, read-out: AUCall): 30.4 ng·h/mL | AUC(0-t) (po, 10 mg/kg, PO 10 mg/kg, individual mice 4-6, read-out: AUClast): 30.4 ng·h/mL | CL/F (po, 10 mg/kg, PO 10 mg/kg, individual mice 4-6, read-out: Cl_F_obs (converted)): 2800 mL/min/kg | MRT last (po, 10 mg/kg, PO 10 mg/kg, individual mice 4-6, read-out: MRTlast): 97.3 min | Tmax (po, 10 mg/kg, PO 10 mg/kg, individual mice 4-6, read-out: Tmax): 5 min | AUC(0-t) (po, 10 mg/kg, PO 10 mg/kg, mean of mice 4#-6#, read-out: AUC0-t, Mean): 41.3 ng·h/mL | AUC(0-inf) (po, 10 mg/kg, PO 10 mg/kg, mean of mice 4#-6#, read-out: AUC0-∞, Mean): 71.9 ng·h/mL | Cmax (po, 10 mg/kg, PO 10 mg/kg, mean of mice 4#-6#, read-out: Cmax, Mean): 40.6 ng/mL | MRT last (po, 10 mg/kg, PO 10 mg/kg, mean of mice 4#-6#, read-out: MRT0-t, Mean): 107 min | MRT inf (po, 10 mg/kg, PO 10 mg/kg, mean of mice 4#-6#, read-out: MRT0-∞, Mean): 300 min | AUC (po, 10 mg/kg, p.o. 10 mg kg^−1, male ICR mice, n = 3, read-out: AUC0‐t, p.o.): 41.3 ± 9.5 ng·h/mL | AUC (po, 10 mg/kg, p.o. 10 mg kg^−1, male ICR mice, n = 3, read-out: AUC0‐∞, p.o.): 71.9 ± 26 ng·h/mL | Cmax (po, 10 mg/kg, p.o. 10 mg kg^−1, male ICR mice, n = 3, read-out: Cmax, p.o.): 40.6 ± 24.1 ng/mL | MRT (po, 10 mg/kg, p.o. 10 mg kg^−1, male ICR mice, n = 3, read-out: MRT0‐t, p.o.): 107 ± 8.7 min | MRT (po, 10 mg/kg, p.o. 10 mg kg^−1, male ICR mice, n = 3, read-out: MRT0‐∞, p.o.): 300 ± 108 min | Tmax (po, 10 mg/kg, p.o. 10 mg kg^−1, male ICR mice, n = 3, read-out: Tmax, p.o.): 4.8 min | half-life (po, 10 mg/kg, p.o. 10 mg kg^−1, male ICR mice, n = 3, read-out: t1/2, p.o. (converted)): 213 ± 72 min | Cmax (po, 10 mg/kg, p.o. 10 mg kg^−1, male ICR mice, read-out: Cmax, p.o.): 78.6 nM
